Consider 1 substance from patent US20170000902A1, “EGFR-TARGETED NANOPARTICLES” (CALIFORNIA INSTITUTE OF TECHNOLOGY, priority 2014, published 2017).

This data set deals with EGFR mRNA. The data set is described as follows: siEGFR knock down of EGFR mRNA expression. To be noted: 50 picomolar concentration of siRNA; expression knocked down to this level. The class given is cell-based. The text has this: Nanoparticles were designed to specifically target EGFR-positive non-small cell lung cancer (NSCLC) cells and deliver siRNA to hinder EGFR expression. The nanoparticles have 4 primary components (see FIG. 1): • 1. A biocompatible cationic mucic acid polymer (cMAP) that encapsulates siRNA with a charge ratio (+/−) of 1; • 2. 5-nitrophenyl boronic acid-mPEG (5-nPBA-mPEG), which binds to cMAP through boronic acids' interaction with diols present on cMAP, to form a coating of methoxy-polyethylene glycol (mPEG) in order to ensure particle stability in serum; • 3. Cetuximab, the targeting agent for the particle, also attached to cMAP through a 5-nitrophenyl boronic acid-PEG entity; and • 4. siRNA against EGFR (siEGFR), able to knock down EGFR mRNA expression to 20% at a 50 picomolar concentration (see SEQ ID NO: 1). The resulting nanoparticles are cetuximab-conjugated cMAP-siEGFR nanoparticles.

As to “siEGFR: siRNA against EGFR, SEQ ID NO: 1 bound to SEQ ID NO: 2 (chain 1 UAAUUUCCAAAUUCCCAAGGAC; chain 2 CCUUGGGAAUUUGGAAAUUAUA; listed as RNA, chemistry not given here)”, the “EGFR mRNA expression after knock down” value is 20%.
